Experimental data published in ChEMBL document CHEMBL3991601, “The target landscape of clinical kinase drugs” (Science, 2017).
Active and inactive are the calls of the source.

Experiments:
[1] = molecular target: Serine/threonine-protein kinase MRCK gamma (Homo sapiens, UniProt Q6DT37)
[2] = molecular target: Cell division cycle 7-related protein kinase (Homo sapiens, UniProt O00311)
Ephrin type-A receptor 1 = molecular target: T1, Ephrin type-A receptor 1 (Homo sapiens, UniProt P21709)
T1 sequence (P21709 whole entry): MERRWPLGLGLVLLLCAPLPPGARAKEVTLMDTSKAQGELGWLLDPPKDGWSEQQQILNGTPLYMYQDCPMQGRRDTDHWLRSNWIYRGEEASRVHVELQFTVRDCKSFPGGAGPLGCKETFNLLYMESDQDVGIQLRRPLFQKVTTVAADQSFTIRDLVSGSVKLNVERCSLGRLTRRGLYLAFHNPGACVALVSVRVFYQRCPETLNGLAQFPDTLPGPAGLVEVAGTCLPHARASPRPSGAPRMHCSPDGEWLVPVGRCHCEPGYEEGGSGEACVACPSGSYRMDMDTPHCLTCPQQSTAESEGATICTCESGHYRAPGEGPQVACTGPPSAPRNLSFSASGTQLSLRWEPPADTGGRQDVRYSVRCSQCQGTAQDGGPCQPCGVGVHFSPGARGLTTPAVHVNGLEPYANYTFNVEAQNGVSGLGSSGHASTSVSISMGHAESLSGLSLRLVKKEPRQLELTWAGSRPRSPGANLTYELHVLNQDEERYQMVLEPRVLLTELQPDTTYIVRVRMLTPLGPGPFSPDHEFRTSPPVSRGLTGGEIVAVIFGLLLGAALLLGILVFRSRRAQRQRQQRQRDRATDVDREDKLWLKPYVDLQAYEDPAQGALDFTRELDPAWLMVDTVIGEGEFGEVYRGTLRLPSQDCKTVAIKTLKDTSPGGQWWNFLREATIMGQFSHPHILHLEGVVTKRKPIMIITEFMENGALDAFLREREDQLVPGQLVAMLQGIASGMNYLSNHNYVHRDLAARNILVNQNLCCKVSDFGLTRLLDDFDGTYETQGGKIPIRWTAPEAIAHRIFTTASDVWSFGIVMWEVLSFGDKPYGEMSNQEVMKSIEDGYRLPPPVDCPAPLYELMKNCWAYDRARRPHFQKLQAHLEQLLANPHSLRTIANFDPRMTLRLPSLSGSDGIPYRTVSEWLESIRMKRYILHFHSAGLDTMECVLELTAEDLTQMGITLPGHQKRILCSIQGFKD

[3] = molecular target: Serine/threonine-protein kinase Nek7 (Homo sapiens, UniProt Q8TDX7)
[4] = molecular target: High affinity nerve growth factor receptor (Homo sapiens, UniProt P04629)
[5] = molecular target: Serine/threonine-protein kinase PAK 6 (Homo sapiens, UniProt Q9NQU5)
[6] = molecular target: Proto-oncogene tyrosine-protein kinase receptor Ret (Homo sapiens, UniProt P07949)
[7] = molecular target: Dual specificity protein kinase CLK3 (Homo sapiens, UniProt P49761); format: subcellular, K-562, COLO 205, SK-N-BE(2) and MV-4-11, Cell lysate; details: read-out: Kd apparent
[8] = molecular target: T2, Adenine phosphoribosyltransferase (Homo sapiens, UniProt P07741)
T2 sequence (P07741 whole entry): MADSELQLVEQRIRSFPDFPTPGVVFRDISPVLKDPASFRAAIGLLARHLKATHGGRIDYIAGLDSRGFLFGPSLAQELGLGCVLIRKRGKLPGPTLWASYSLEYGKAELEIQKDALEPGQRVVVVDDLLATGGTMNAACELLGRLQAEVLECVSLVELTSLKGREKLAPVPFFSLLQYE

[9] = molecular target: T3, Inhibitor of nuclear factor kappa-B kinase subunit epsilon (Homo sapiens, UniProt Q14164)
T3 sequence (Q14164 whole entry): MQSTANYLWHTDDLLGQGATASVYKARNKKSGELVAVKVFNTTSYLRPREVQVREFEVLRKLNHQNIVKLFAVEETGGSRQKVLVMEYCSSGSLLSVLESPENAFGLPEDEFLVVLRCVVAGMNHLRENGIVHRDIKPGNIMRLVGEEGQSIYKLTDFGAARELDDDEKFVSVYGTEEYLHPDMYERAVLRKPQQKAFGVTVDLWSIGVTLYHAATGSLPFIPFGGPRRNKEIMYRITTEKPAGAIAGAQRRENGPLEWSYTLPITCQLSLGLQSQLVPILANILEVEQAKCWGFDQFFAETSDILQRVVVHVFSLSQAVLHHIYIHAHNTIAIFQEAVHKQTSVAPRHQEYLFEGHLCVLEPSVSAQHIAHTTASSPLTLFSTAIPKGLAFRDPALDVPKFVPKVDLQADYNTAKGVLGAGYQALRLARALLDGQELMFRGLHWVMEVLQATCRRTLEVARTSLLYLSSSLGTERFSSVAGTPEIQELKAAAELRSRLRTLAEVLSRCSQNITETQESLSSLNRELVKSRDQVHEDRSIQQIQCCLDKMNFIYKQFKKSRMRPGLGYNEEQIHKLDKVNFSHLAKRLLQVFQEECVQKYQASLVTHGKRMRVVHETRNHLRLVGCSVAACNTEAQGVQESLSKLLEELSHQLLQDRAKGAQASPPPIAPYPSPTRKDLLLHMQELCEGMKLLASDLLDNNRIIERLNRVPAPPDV

[10] = molecular target: Serine/threonine-protein kinase 24 (Homo sapiens, UniProt Q9Y6E0)
Note: in the data inactive means no Kd found up to 30 µM.

Chain of Dual specificity protein kinase CLK3 (P49761 whole entry): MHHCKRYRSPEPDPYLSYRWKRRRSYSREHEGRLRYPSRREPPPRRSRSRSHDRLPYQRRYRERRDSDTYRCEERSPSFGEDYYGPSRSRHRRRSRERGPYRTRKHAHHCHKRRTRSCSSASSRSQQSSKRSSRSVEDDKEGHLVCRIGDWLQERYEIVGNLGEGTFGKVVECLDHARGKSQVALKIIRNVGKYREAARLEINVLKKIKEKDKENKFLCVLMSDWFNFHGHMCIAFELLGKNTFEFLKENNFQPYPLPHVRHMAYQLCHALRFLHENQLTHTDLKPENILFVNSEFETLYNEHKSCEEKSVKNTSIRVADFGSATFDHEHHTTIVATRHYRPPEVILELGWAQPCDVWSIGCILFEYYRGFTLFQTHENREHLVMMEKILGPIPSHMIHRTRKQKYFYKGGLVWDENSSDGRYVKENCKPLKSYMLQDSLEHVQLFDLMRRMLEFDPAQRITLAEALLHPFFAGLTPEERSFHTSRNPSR
Chain of Serine/threonine-protein kinase MRCK gamma (Q6DT37 whole entry): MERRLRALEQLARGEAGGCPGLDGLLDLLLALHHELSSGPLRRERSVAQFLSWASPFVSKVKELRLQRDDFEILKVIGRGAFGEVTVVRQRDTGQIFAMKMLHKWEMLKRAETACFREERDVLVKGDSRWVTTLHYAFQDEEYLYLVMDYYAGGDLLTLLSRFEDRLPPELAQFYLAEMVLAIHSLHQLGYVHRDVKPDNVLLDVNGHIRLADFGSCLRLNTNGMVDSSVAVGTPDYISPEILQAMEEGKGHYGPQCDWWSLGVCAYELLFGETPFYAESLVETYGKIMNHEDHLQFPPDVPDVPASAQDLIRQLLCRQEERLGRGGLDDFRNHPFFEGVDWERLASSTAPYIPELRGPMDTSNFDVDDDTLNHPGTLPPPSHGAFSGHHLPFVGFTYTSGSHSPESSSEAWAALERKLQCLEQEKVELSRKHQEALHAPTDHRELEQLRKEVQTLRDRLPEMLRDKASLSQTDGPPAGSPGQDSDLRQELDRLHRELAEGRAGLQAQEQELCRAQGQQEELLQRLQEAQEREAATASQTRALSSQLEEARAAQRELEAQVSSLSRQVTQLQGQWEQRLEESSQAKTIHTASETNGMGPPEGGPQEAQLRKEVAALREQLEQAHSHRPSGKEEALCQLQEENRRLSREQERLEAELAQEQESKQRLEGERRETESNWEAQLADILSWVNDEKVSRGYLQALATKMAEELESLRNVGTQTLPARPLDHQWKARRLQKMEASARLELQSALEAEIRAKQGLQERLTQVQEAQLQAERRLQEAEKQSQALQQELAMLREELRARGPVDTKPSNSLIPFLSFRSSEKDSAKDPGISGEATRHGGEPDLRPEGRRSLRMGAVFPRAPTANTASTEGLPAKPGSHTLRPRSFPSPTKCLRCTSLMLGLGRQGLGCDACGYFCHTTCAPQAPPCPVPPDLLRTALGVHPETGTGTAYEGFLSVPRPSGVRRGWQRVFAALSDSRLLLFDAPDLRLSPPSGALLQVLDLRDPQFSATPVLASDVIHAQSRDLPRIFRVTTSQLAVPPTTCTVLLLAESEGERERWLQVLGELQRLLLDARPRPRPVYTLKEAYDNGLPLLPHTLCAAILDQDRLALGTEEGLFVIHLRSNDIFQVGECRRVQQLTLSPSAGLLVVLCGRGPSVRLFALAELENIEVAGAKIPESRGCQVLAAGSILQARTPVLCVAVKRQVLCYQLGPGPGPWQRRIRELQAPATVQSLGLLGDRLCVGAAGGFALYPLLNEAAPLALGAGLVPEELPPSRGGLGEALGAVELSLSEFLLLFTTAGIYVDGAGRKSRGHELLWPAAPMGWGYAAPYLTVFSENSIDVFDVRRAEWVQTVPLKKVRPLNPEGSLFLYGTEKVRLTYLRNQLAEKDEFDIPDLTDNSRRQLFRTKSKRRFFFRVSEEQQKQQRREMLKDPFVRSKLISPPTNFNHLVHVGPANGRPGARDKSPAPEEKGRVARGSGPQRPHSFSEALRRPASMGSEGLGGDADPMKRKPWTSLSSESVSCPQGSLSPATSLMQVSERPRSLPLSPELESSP
Chain of Serine/threonine-protein kinase PAK 6 (Q9NQU5 whole entry): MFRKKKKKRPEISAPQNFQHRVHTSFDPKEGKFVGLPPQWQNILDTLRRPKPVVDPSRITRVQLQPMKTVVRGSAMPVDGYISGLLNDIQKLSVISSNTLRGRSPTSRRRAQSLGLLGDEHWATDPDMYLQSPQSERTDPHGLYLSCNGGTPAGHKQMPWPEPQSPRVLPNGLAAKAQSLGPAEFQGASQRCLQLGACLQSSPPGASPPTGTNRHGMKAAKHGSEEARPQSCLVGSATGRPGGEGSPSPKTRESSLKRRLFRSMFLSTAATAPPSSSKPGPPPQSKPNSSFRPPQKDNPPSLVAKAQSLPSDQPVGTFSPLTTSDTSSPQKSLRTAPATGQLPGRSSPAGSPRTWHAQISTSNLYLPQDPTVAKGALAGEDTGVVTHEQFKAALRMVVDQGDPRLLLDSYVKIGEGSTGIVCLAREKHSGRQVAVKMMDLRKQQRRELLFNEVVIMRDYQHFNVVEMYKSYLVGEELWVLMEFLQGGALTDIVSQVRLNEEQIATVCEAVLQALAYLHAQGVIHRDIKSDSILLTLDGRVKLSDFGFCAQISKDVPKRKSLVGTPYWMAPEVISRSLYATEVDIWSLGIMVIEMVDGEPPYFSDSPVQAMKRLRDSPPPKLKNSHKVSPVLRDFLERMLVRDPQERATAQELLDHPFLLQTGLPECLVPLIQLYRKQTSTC
Chain of Proto-oncogene tyrosine-protein kinase receptor Ret (P07949 whole entry): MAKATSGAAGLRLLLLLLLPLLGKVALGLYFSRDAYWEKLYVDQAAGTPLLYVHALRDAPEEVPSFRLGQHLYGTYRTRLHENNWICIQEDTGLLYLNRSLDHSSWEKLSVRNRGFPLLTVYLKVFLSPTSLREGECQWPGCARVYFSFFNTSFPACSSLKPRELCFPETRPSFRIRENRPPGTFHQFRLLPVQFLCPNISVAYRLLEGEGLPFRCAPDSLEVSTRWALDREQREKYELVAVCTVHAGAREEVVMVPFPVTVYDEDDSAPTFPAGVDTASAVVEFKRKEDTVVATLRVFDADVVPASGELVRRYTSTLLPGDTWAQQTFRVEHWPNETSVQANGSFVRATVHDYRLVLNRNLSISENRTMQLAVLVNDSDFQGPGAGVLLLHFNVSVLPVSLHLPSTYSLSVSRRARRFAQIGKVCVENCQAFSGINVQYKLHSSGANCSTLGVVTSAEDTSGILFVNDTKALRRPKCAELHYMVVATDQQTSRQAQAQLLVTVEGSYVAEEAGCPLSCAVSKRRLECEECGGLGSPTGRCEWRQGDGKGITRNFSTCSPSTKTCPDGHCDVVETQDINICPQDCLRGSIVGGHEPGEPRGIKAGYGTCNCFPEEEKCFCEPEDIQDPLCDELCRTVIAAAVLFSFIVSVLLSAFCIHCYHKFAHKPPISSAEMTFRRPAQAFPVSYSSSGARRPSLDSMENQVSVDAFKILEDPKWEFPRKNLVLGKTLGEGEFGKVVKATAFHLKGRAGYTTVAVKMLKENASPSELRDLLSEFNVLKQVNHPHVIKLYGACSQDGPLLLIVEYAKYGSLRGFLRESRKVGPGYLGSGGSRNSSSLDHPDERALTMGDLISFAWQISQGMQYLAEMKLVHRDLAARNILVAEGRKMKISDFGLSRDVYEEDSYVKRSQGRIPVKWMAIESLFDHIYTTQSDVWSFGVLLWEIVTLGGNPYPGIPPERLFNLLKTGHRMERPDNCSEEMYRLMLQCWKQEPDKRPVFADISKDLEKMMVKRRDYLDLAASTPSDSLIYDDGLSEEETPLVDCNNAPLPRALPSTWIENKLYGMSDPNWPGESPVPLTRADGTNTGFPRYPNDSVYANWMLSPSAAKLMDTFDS
Chain of Serine/threonine-protein kinase Nek7 (Q8TDX7 whole entry): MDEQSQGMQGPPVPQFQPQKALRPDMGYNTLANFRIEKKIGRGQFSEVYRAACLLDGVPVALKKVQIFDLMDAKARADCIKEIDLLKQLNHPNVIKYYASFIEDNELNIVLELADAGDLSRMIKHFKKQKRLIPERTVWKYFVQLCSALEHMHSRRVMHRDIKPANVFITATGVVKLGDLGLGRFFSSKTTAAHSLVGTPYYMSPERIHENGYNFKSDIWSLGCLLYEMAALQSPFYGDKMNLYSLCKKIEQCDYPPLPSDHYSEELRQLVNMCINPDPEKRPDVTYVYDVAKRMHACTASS
Chain of Cell division cycle 7-related protein kinase (O00311 whole entry): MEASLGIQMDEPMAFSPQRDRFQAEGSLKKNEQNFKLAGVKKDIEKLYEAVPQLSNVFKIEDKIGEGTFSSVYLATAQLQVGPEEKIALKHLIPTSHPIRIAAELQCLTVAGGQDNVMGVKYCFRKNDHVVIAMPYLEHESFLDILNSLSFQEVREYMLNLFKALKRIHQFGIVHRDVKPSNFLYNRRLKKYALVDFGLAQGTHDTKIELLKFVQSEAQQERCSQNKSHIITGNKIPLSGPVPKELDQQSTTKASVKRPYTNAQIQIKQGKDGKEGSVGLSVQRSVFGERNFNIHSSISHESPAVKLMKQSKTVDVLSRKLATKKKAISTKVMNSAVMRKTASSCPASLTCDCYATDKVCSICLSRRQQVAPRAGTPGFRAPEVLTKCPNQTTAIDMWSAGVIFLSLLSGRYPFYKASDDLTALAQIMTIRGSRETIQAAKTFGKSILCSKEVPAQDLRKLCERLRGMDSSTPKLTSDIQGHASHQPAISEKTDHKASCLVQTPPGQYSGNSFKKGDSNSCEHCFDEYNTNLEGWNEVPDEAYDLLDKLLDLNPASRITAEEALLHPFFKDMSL

Structure (SMILES)	Kd [1]	Kd [2]	Kd (Ephrin type-A receptor 1)	Kd [3]	Kd [4]	Kd [5]	Kd [6]	Kd [7]	Kd [8]	Kd [9]	Kd [10]
Cn1ncc(Cl)c1-c1cc(C(=O)N[C@H](CN)Cc2cccc(F)c2)sc1Cl [AFURESERTIB]	> 30 µM (inactive)	> 30 µM (inactive)	> 30 µM (inactive)	> 30 µM (inactive)	> 30 µM (inactive)	> 30 µM (inactive)	> 30 µM (inactive)	–	–	–	–
CN1CCC(COc2cnc(-c3cccc(Cn4nc(-c5cccc(C#N)c5)ccc4=O)c3)nc2)CC1 [TEPOTINIB]	> 30 µM (inactive)	–	> 30 µM (inactive)	> 30 µM (inactive)	> 30 µM (inactive)	> 30 µM (inactive)	> 30 µM (inactive)	> 30 µM (inactive)	> 30 µM (inactive)	> 30 µM (inactive)	–
CNC(=O)c1ccc(-c2cnc3ncc(Cc4ccc5ncccc5c4)n3n2)cc1F [CAPMATINIB]	> 30 µM (inactive)	> 30 µM (inactive)	> 30 µM (inactive)	> 30 µM (inactive)	> 30 µM (inactive)	> 30 µM (inactive)	> 30 µM (inactive)	–	> 30 µM (inactive)	> 30 µM (inactive)	–
Cc1cc2c(F)c(Oc3ncnn4cc(OC[C@@H](C)OC(=O)[C@H](C)N)c(C)c34)ccc2[nH]1 [BRIVANIB ALANINATE]	> 30 µM (inactive)	–	> 30 µM (inactive)	> 30 µM (inactive)	> 30 µM (inactive)	> 30 µM (inactive)	7.48 µM (active)	> 30 µM (inactive)	> 30 µM (inactive)	> 30 µM (inactive)	> 30 µM (inactive)
C=CC(=O)N1CCC(Oc2cc3c(Nc4ccc(Cl)c(Cl)c4F)ncnc3cc2OC)CC1 [POZIOTINIB]	–	–	–	–	> 30 µM (inactive)	> 30 µM (inactive)	1.19 µM (active)	> 30 µM (inactive)	–	> 30 µM (inactive)	> 30 µM (inactive)
Cc1ccc(-n2nc(C(C)(C)C)cc2NC(=O)NCc2cc(F)ccc2Oc2ccc3c(cnn3CCO)c2)cc1 [PEXMETINIB]	> 30 µM (inactive)	> 30 µM (inactive)	2.64 µM (active)	> 30 µM (inactive)	3.13 µM (active)	> 30 µM (inactive)	1.2 µM (active)	–	> 30 µM (inactive)	> 30 µM (inactive)	> 30 µM (inactive)
CNC(=O)c1cc(Oc2ccc(NC(=O)Nc3ccc(Cl)c(C(F)(F)F)c3)c(F)c2)ccn1 [REGORAFENIB]	> 30 µM (inactive)	–	0.007 µM	> 30 µM (inactive)	> 30 µM (inactive)	–	–	> 30 µM (inactive)	> 30 µM (inactive)	> 30 µM (inactive)	> 30 µM (inactive)
Cc1cc(Nc2cc(N3CCN(C)CC3)nc(/C=C/c3ccccc3)n2)n[nH]1 [ENMD-2076]	> 30 µM (inactive)	–	–	–	–	> 30 µM (inactive)	–	> 30 µM (inactive)	> 30 µM (inactive)	–	> 30 µM (inactive)
CN1CCC(CNc2ccc3ncc(-c4cccc(OC(F)(F)F)c4)n3n2)CC1 [SGI-1776]	> 30 µM (inactive)	> 30 µM (inactive)	> 30 µM (inactive)	> 30 µM (inactive)	> 30 µM (inactive)	> 30 µM (inactive)	3.22 µM (active)	–	> 30 µM (inactive)	> 30 µM (inactive)	> 30 µM (inactive)
CC(C)Nc1cc(-c2c[nH]c(C(=O)N[C@H](CO)c3cccc(Cl)c3)c2)c(Cl)cn1 [ULIXERTINIB]	> 30 µM (inactive)	> 30 µM (inactive)	> 30 µM (inactive)	> 30 µM (inactive)	> 30 µM (inactive)	> 30 µM (inactive)	> 30 µM (inactive)	–	> 30 µM (inactive)	> 30 µM (inactive)	> 30 µM (inactive)
CC[C@@H]1C(=O)N(C)c2cnc(Nc3ccc(C(=O)N[C@H]4CC[C@H](N5CCN(CC6CC6)CC5)CC4)cc3OC)nc2N1C(C)C [VOLASERTIB]	> 30 µM (inactive)	–	> 30 µM (inactive)	> 30 µM (inactive)	> 30 µM (inactive)	–	> 30 µM (inactive)	> 30 µM (inactive)	> 30 µM (inactive)	> 30 µM (inactive)	> 30 µM (inactive)
O=C(Nc1cccc(Cl)c1)Nc1ncc(CCNc2ncnc3ccsc23)s1 [SNS-314]	> 30 µM (inactive)	–	> 30 µM (inactive)	> 30 µM (inactive)	–	–	–	> 30 µM (inactive)	> 30 µM (inactive)	–	> 30 µM (inactive)
COc1cc2nccc(Oc3ccc(NC(=O)NC4CC4)c(Cl)c3)c2cc1C(N)=O [LENVATINIB]	> 30 µM (inactive)	–	> 30 µM (inactive)	> 30 µM (inactive)	–	–	–	> 30 µM (inactive)	> 30 µM (inactive)	> 30 µM (inactive)	> 30 µM (inactive)
CCS(=O)(=O)N1CC(CC#N)(n2cc(-c3ncnc4[nH]ccc34)cn2)C1 [BARICITINIB]	> 30 µM (inactive)	–	> 30 µM (inactive)	–	–	> 30 µM (inactive)	0.973 µM (active)	> 30 µM (inactive)	> 30 µM (inactive)	> 30 µM (inactive)	> 30 µM (inactive)
Cc1c(F)cc(C(=O)NC2CC2)cc1-c1ccc(C(=O)NCC(C)(C)C)cn1 [LOSMAPIMOD]	> 30 µM (inactive)	–	> 30 µM (inactive)	–	> 30 µM (inactive)	–	> 30 µM (inactive)	> 30 µM (inactive)	> 30 µM (inactive)	–	0.011 µM
CCN1CCN(Cc2ccc(-c3cc4c(N[C@H](C)c5ccccc5)ncnc4[nH]3)cc2)CC1 [AEE-788]	> 30 µM (inactive)	> 30 µM (inactive)	> 30 µM (inactive)	> 30 µM (inactive)	> 30 µM (inactive)	> 30 µM (inactive)	–	–	> 30 µM (inactive)	> 30 µM (inactive)	> 30 µM (inactive)
Cc1ccc(NC(=O)c2ccc(CN3CC[C@H](N(C)C)C3)c(C(F)(F)F)c2)cc1Nc1nccc(-c2cncnc2)n1 [BAFETINIB]	> 30 µM (inactive)	–	> 30 µM (inactive)	> 30 µM (inactive)	> 30 µM (inactive)	–	2.42 µM (active)	> 30 µM (inactive)	> 30 µM (inactive)	> 30 µM (inactive)	–
Cc1cc(-c2cc(O)ccc2Cl)cc2nnc(Nc3ccc(OCCN4CCCC4)cc3)nc12	> 30 µM (inactive)	> 30 µM (inactive)	> 30 µM (inactive)	> 30 µM (inactive)	> 30 µM (inactive)	> 30 µM (inactive)	0.001 µM (active)	–	> 30 µM (inactive)	> 30 µM (inactive)	> 30 µM (inactive)
